Experimental data reported in US20250221964A1, “Substituted Isoxazoles as Selective Nav1.7 Inhibitors for Pain Treatment and Method of Pain Treatment” (Board of Regents, The University of Texas System, priority 2021, published 2025).
pIC50: −log10 of the molar value. Like-named read-outs stand apart in the source and are kept apart here.

How the values were obtained:
hNav1.7 = hNav1.7 (Homo sapiens, UniProt Q15858); test: Nav1.7 in vitro inhibition assay; assay type: cell-based; conditions: for subtype selectivity (Nav1.7 vs. Nav1.5): in words
[1] = ADME assays (solubility, CYP inhibition, in vitro metabolism); conditions: in words
[2] = system: mouse automated formalin model; test: mouse automated formalin test; assay type: in vivo; conditions: 135 mg/kg p.o.
Method: (§1) Compound 100 was administered using the mouse automated formalin model at a dosage of 135 mg/kg p.o. Dosage was selected based upon projection from mouse exposure at 5 mg/kg.

[3] = mouse exposure / pharmacokinetics in formalin study (plasma, brain); assay type: in vivo; conditions: for concentration at 0.25 hr: pre-tx time 0.25 hr, unbound
Method: as §1

hNav1.5 = hNav1.5 (Homo sapiens, UniProt Q14524); test: Nav1.5 in vitro inhibition assay; assay type: cell-based; conditions: in vitro testing
[4] = system: muscarinic receptors in the rat cerebral cortex; conditions: cited from earlier work
[5] = in vitro testing, read-out: potency against Nav1.7
[6] = 135 mg/kg p.o., 0.25 hr, versus FI IC50
[7] = 135 mg/kg p.o., 0.25 hr, versus SI IC50

Sequence of hNav1.7 (Q15858 whole entry): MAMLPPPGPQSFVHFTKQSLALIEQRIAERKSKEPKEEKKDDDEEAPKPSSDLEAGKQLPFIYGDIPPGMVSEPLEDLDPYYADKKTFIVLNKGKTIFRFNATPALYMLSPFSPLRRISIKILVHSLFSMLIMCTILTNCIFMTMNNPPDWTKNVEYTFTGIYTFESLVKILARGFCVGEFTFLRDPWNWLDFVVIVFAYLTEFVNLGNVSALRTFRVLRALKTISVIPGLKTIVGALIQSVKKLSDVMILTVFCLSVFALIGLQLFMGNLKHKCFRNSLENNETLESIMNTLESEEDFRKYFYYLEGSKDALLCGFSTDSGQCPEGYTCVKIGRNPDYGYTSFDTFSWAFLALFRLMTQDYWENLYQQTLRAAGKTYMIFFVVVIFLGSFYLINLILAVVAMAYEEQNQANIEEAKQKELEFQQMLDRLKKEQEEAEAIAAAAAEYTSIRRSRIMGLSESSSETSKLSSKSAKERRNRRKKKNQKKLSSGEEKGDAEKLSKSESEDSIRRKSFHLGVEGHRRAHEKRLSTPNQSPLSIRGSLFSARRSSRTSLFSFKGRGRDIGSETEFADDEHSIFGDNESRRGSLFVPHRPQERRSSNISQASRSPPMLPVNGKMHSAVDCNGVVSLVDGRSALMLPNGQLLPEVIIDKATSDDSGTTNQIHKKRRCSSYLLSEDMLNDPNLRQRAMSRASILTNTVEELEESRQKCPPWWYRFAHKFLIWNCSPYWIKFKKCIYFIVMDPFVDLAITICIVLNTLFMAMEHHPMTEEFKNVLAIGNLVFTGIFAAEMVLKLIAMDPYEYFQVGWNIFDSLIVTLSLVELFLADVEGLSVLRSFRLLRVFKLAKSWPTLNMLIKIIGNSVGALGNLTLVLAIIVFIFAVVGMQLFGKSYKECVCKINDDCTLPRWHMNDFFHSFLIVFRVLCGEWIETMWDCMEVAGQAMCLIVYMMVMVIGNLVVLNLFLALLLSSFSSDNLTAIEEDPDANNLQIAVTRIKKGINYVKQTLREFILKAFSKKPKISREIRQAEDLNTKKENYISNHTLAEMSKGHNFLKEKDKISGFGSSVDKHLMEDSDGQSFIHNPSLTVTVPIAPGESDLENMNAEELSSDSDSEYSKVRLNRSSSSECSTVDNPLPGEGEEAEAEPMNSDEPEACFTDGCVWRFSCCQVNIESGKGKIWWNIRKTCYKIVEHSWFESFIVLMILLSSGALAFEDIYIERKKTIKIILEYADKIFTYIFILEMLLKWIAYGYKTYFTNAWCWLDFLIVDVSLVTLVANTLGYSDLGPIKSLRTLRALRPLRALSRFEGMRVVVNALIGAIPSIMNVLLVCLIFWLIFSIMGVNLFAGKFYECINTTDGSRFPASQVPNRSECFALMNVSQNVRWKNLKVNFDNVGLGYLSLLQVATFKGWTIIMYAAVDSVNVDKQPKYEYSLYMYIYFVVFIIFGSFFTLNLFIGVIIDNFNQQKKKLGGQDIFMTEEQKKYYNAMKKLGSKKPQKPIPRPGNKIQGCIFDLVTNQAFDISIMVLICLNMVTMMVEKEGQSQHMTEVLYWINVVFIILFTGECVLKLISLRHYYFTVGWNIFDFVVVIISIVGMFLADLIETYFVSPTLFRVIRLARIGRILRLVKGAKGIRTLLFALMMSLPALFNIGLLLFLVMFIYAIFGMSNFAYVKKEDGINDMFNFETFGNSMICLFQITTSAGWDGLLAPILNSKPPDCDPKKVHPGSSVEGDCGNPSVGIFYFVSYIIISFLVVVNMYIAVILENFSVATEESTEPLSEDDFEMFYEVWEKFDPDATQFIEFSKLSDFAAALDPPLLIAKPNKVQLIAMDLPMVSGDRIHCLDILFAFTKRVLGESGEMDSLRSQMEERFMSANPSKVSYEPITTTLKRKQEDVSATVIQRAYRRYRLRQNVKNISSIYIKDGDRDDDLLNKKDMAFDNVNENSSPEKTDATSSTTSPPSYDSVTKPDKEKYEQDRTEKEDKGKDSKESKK
Sequence of hNav1.5 (Q14524 whole entry): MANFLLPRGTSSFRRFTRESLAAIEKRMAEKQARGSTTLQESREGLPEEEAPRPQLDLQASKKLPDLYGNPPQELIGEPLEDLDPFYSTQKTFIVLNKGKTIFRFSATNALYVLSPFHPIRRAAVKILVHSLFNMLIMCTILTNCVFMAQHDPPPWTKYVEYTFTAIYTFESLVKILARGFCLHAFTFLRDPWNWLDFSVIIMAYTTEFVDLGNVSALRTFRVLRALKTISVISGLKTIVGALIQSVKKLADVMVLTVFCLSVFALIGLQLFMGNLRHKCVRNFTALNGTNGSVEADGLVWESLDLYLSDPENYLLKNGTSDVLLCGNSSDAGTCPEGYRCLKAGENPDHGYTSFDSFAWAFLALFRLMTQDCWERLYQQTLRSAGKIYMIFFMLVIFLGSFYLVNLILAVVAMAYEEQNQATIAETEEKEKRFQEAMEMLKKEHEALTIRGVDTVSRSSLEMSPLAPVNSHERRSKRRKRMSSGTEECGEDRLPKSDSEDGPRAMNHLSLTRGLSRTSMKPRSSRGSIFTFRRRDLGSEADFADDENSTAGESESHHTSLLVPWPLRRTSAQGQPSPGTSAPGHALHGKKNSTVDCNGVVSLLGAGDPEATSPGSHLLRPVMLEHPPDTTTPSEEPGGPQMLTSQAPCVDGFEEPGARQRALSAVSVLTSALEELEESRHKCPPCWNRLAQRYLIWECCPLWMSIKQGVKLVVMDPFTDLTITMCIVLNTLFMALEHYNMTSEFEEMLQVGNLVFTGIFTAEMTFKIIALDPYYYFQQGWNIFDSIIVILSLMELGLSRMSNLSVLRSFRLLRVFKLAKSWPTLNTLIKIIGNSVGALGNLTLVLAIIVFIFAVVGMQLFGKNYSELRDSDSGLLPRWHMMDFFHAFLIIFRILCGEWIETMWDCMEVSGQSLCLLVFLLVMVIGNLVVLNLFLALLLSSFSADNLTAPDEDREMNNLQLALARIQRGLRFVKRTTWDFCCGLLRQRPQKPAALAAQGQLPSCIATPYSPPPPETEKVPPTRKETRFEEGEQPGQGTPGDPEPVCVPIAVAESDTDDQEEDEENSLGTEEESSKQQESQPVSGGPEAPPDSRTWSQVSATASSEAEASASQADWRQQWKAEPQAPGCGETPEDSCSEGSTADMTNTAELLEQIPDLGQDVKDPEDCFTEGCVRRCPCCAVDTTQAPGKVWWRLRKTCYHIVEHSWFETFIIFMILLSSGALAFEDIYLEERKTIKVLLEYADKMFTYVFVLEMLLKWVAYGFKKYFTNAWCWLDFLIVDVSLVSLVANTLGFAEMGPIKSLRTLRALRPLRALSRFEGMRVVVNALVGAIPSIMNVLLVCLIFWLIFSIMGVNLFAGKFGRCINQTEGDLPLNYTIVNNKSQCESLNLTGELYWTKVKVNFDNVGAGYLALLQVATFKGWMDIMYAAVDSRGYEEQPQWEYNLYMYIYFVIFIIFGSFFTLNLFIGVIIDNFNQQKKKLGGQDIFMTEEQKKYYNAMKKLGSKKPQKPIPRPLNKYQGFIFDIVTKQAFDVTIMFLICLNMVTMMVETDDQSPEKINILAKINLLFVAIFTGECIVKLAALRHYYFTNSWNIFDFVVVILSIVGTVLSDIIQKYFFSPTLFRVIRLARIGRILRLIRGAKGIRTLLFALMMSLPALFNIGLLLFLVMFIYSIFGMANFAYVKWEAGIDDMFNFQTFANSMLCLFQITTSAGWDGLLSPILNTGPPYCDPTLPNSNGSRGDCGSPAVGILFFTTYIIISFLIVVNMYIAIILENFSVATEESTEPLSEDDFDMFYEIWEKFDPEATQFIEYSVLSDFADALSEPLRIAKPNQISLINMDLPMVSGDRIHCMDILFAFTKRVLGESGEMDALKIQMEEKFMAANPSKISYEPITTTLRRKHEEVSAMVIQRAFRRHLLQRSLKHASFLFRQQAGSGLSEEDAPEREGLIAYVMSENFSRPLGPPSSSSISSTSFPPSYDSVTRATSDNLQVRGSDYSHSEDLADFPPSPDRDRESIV

CC(C)(CO)CCCNC(=O)c1cc(-c2ccccc2)on1 [Compound 100]
pIC50 (hNav1.7; FI, read-out: h1.7 IC50 (FI)): 5.69
pIC50 (hNav1.7; [5]): 6.24
subtype selectivity (Nav1.7 vs. Nav1.5) (hNav1.7): poor selectivity
compound profiling in ADME assays [1]: promising
reduction in late-phase pain-induced reactions [2]: 31.4%
Percent Reversal in Late Phase Formalin ([2]; pre-tx time 0.25 hr): 31.4 ± 5.1%
Brain TER (FI) [3, 6]: 0.2 (FI)
Plasma TER (FI) [3, 6]: 0.1 (FI)
Brain TER (SI) [3, 7]: 1.8 (SI)
Plasma TER (SI) [3, 7]: 1.2 (SI)
concentration at 0.25 hr ([3]; brain, po, mouse, 135 mg/kg p.o., read-out: Mean Brain, u): 414 nM
Tmax ([3]; in vivo, po, mouse): 15 min
half-life ([3]; in vivo, po, mouse): 66 min
concentration at 0.25 hr ([3]; plasma, po, mouse, 135 mg/kg p.o., read-out: Mean plasma, u): 282 nM
pIC50 (hNav1.5; read-out: Nav1.5 potency): 5.72

CN(CCCC(C)(C)CO)C(=O)c1cc(-c2ccccc2)on1 [Compound 119]
subtype selectivity (Nav1.7 vs. Nav1.5) (hNav1.7): improved

Cc1scc2c1N(C(=O)CN1CCN(C)CC1)c1ccccc1NC2=O [(−)-isomer, telenzepine]
fold less active than the (+)-isomer [4]: 500 ×

CC(C)(CO)CCCNC(=O)c1noc(-c2ccccc2)c1-c1ccccc1 [Compound 106]
pIC50 (hNav1.7; [5]): 7.22
subtype selectivity (Nav1.7 vs. Nav1.5) (hNav1.7): remained poor
pIC50 (hNav1.5; read-out: Nav1.5 IC50): 6.74

Cc1ccc(F)cc1-c1c(C(=O)NCCCC(C)(C)CO)noc1-c1ccccc1 [Compound 130]
subtype selectivity (Nav1.7 vs. Nav1.5) (hNav1.7): improved
